# Values of other authors in patent US9150582B2, “Composition and method for neuropeptide S receptor (NPSR) antagonists” (RESEARCH TRIANGLE INSTITUTE, priority 2011, dated 2015).
# Entries after “also recorded” stand apart in the source; their conditions may differ.
# What was measured:
# [1] = i.c.v.
# [2] = target: T1, NPSR-C0Alt (Homo sapiens, UniProt Q6W5P4); conditions: functional assay
# T1 sequence (Q6W5P4 1-377 isoform Q6W5P4-4): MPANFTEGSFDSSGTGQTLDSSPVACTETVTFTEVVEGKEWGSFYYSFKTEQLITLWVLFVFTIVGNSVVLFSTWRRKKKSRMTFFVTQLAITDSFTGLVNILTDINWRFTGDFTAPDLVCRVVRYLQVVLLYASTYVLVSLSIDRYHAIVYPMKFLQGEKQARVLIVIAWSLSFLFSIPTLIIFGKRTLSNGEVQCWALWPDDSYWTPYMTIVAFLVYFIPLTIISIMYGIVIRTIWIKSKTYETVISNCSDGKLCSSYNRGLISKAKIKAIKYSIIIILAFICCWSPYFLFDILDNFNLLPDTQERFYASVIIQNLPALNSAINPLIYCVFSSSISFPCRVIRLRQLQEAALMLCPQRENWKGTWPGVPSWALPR
# [3] = test system: mice; conditions: 0.1 nMol NPS
# [4] = test system: mice; conditions: i.c.v.
# [5] = target: T2, NPSR Ile^107 variant (Homo sapiens, UniProt Q6W5P4, N107I); conditions: calcium flux
# T2 sequence (Q6W5P4 1-371 N107I): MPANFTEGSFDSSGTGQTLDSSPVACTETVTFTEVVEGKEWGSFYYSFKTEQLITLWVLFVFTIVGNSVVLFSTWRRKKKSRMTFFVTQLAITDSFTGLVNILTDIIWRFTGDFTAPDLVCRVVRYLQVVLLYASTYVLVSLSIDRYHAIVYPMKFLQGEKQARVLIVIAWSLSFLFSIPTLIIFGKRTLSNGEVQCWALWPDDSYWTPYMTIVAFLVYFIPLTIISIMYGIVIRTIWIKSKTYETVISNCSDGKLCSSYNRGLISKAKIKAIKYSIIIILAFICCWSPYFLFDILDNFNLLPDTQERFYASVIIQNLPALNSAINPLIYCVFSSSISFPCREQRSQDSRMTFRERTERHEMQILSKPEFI
# [6] = test system: basolateral amygdala (BLA); conditions: 0.1 nM injected into BLA
# [7] = test system: mice
# [8] = test system: mice; conditions: i.c.v., habituated and naive mice
# [9] = test system: mice; conditions: elevated plus maze, light dark box, marble burying
substance,measurement,setting,value
"NPS: Human Neuropeptide S, 20 residue peptide SFRNGVGTGMKKTSFQRAKS (SEQ ID NO: 1), agonist of NPSR (Human)",performance in novel recognition assays,[1],dose-dependently improves performance
same,"potency at NPSR-C0Alt, lower versus the 107I variant",[2],30 fold
same,amount of stage 1 and 2 slow wave sleep and REM sleep,[3]; compared to saline,significantly reduced
same,first hour of wakefulness,"[3]; mice, saline 45%",69%
same,formerly extinguished cocaine seeking behaviors,[4],dose-dependently increased
same,"enhancement in functional sensitivity, Ile107 variant over Asn107",[5],five to ten fold enhancement
same,anxiolytic activity at low dose,[6],No anxiolytic activity was observed
same,contextual fear memories,[6],significantly reduced contextual fear memories
same,"fear response (freezing behavior), administration pre-testing",[7]; NPS given pre-testing,decreased the fear response
same,"fear response, administration pre-training",[7]; NPS given pre-training,no effect on fear response
same,locomotor activity,[8],increased locomotor activity; also recorded: increase in locomotor activity
same,anxiolytic-like behaviors,[9],anxiolytic-like behaviors
